Reference: patent US10640488B2, “Antibacterial compounds” (AZIENDE CHIMICHE RIUNITE ANGELINI FRANCESCO A.C.R.A.F. …, priority 2016, dated 2020)

How the values were obtained:
S. aureus DNA gyrase = S. aureus DNA gyrase (Staphylococcus aureus, UniProt P0A0K8+P20831); assay type: biochemical
E. coli DNA gyrase = E. coli DNA gyrase (Escherichia coli, UniProt P0AES4+P0AES6); assay type: biochemical
E. coli DNA gyrase, sequence (P0AES4 whole entry, one chain of several): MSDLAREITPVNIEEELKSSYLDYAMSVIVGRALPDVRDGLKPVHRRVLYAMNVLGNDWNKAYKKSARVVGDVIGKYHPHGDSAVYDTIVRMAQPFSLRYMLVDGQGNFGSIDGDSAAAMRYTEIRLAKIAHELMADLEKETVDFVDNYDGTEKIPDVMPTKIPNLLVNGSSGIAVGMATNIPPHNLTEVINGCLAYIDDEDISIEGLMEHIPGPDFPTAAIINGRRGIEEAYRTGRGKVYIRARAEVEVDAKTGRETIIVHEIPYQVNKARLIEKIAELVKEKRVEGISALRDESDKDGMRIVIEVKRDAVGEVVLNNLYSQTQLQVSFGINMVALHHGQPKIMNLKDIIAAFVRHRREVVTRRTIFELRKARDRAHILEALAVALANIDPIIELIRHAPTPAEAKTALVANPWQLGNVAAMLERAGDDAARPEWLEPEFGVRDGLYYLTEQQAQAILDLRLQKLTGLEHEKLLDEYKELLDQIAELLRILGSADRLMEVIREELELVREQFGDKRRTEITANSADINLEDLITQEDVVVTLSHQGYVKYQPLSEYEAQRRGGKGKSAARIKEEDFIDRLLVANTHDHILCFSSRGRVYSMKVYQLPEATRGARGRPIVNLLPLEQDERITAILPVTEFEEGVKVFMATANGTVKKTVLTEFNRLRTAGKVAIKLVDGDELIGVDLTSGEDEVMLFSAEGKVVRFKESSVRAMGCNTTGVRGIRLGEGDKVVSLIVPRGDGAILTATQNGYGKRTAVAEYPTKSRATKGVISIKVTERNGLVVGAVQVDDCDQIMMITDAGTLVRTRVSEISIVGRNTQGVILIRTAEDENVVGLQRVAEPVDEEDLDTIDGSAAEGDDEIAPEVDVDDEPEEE

S. aureus DNA gyrase, sequence (P20831 whole entry): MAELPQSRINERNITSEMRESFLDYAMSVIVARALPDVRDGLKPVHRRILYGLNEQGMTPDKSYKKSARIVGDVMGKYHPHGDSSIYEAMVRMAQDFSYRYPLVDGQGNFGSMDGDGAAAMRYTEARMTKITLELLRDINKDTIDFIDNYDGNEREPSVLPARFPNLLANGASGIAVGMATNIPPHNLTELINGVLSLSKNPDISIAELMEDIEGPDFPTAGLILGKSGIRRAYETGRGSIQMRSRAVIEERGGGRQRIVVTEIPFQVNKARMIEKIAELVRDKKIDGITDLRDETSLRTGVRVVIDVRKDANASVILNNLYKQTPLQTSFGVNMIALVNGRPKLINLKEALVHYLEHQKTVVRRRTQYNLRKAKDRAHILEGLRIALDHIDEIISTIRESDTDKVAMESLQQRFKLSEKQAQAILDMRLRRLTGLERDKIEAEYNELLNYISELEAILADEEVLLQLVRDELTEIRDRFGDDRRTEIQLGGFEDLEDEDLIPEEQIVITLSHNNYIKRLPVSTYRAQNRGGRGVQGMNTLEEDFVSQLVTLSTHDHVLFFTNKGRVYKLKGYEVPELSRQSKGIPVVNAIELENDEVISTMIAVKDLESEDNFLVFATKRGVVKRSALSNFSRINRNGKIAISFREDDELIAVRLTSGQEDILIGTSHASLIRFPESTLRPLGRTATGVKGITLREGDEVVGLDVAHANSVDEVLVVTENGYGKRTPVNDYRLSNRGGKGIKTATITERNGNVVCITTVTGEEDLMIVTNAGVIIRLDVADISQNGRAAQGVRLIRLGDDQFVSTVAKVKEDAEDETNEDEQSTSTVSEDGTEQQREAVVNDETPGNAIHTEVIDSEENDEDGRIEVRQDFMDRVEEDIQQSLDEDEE
S. aureus DNA gyrase, sequence (P0A0K8 whole entry): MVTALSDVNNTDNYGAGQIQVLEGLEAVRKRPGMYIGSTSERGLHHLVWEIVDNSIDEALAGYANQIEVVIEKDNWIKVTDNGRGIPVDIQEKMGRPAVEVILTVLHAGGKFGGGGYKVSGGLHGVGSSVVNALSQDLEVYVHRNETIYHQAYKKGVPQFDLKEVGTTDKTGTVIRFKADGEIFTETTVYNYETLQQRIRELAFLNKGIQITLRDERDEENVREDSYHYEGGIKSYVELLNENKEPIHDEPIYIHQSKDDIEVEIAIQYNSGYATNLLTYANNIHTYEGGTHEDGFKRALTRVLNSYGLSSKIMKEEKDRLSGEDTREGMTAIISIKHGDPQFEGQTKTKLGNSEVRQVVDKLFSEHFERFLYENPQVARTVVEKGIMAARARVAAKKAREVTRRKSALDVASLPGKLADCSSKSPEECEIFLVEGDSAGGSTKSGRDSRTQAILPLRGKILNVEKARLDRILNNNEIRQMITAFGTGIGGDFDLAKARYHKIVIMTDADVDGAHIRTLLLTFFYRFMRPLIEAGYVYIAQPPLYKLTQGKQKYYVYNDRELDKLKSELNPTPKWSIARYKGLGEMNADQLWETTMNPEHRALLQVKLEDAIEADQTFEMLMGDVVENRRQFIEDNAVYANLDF

Structure (SMILES) | S. aureus % inhibition DNA gyrase (S. aureus DNA gyrase) | E. coli % inhibition DNA gyrase (E. coli DNA gyrase)
O=c1oc2ccccc2c2[nH]c(CNCC3CCN(c4nccc5ccc(F)cc45)C3)cc12 (single isomer, unassigned) [Compound 180, 2-[({[1-(7-fluoroisoquinolin-1-yl)pyrrolidin-3-yl]methyl}amino)methyl][1]benzopyrano[4,3-b]pyrrol-4(1H)-one] | 90% | 58%
O=c1oc2ccccc2c2[nH]c(CNCC3CN(c4nccc5ccc(F)cc45)CCO3)cc12 (single isomer, unassigned) [Compound 182, 2-[({[4-(7-fluoroisoquinolin-1-yl)morpholin-2-yl]methyl}amino)methyl][1]benzopyrano[4,3-b]pyrrol-4(1H)-one] | 92% | 61%
